Assay type in all cases: cell-based
One data set relates to HCV Replicon 1B. Put plainly: HCV Replicon 1B EC50 (Example Q). Particulars: Hepatitis C virus, 72 h, read-out: HCV Replicon 1B EC50 (nM) (per Ex. Q). As for the experimental part: (§1) Compounds were serially diluted in ten steps of 1:3 dilutions in 384-well plates. All serial dilutions were performed in four replicates per compound within the same 384-well plate. An HCV protease inhibitor ITMN-191 at […] was added as a control of 100% inhibition of HCV replication while puromycin at 10 mM was included as a control of 100% cytotoxicity. To each well of a black polystyrene 384-well plate (Greiner Bio-one, Monroe, NC), 90 μL of cell culture medium (without Geneticin) containing 2000 suspended HCV replicon cells was added with a Biotek μFlow workstation. For compound transfer into cell culture plates, 0.4 μL of compound solution from the compound serial dilution plate was transferred to the cell culture plate on a Biomek FX workstation. The DMSO concentration in the final assay wells was 0.44%. The plates were incubated for 3 days at 37° C. with 5% CO2 and 85% humidity. The HCV replicon assay was a multiplex assay, able to assess both cytotoxicity and antireplicon activity from the same well. The CC50 assay was performed first. The media in the 384-well cell culture plate was aspirated, and the wells were washed four times with 100 μL of PBS each, using a Biotek ELX405 plate washer. A volume of 50 μL of a solution containing 400 nM calcein AM (Anaspec, Fremont, CA) in 1×PBS was added to each well of the plate with a Biotek μFlow workstation. The plate was incubated for 30 min at room temperature before the fluorescence signal (excitation 490 nm, emission 520 nm) was measured with a Perkin-Elmer Envision plate reader. The EC50 assay was performed in the same wells as the CC50 assay. The calcein-PBS solution in the 384-well cell culture plate was aspirated with a Biotek ELX405 plate washer. A volume of 20 μL of Dual-Glo luciferase buffer (Promega, Madison, WI) was added to each well of the plate with a Biotek μFlow Workstation. The plate was incubated for 10 min at room temperature. A volume of 20 μL of a solution containing a 1:100 mixture of Dual-Glo Stop & Glo substrate (Promega, Madison, WI) and Dual-Glo Stop & Glo buffer (Promega, Madison, WI) was added to each well of the plate with a Biotek μFlow Workstation. The plate was then incubated at room temperature for 10 min before the luminescence signal was measured with a Perkin-Elmer Envision Plate Reader.
On the technique in general: In antiviral work, replicon cells carry a viral genome segment that copies itself.

A short description of data set [1]: HCV Replicon 2A CC50, calcein AM (Example Q). The note with it: HCV replicon cells (2A), calcein AM fluorescence, read-out: HCV Replicon 2A CC50 (nM) (per Ex. Q). As for the experimental part: as §1
The subject of another data set is HCV Replicon 2A. Put plainly: HCV Replicon 2A EC50 (Example Q). Particulars: Hepatitis C virus, 72 h; HCV replicon cells, 3 days, Dual-Glo luciferase; read-out: HCV Replicon 2A EC50 (nM) (per Ex. Q). As for the experimental part: as §1
A further data set is described as follows: in vitro. Particulars: human. As for the experimental part: H1-HeLa cell viability was measured using the CellTiter-Glo® Luminescent Cell Viability Assay kit (Promega, Cat #G7573) according to the manufacturer's protocol. H1-HeLa cells were maintained in Dulbecco's Modified Eagle's Medium with high glucose (Gibco, Cat #: 11995073) supplemented with 10% FBS (HyClone, Cat #: SH303396.03), 100 units/mL penicillin and 100 µg/mL streptomycin (Gibco, Cat #: 15140122). One day before compound treatment, H1-HeLa cells were seeded at […] into 96-well plates (Corning, Cat #3904) in Opti-MEM (Gibco, Cat #: 31985070) supplemented with 2% FBS, and were incubated at 37° C. in a 100% humid atmosphere containing 5% (v/v) CO2. After overnight incubation, the cells were treated with three-fold serial dilutions of the compound. At 96 hours post treatment, CellTiter-Glo reagents were added into each well and luminescence signals were recorded by an EnVision plate reader. The relative cell viability was calculated by normalizing the absorbance of the compound-treated groups to that of the DMSO-treated groups (set as 100% viability) and 10 μM puromycin treated groups (set as 0% viability). The CC50 (compound concentration for reducing 50% of cell viability) was calculated using a nonlinear regression model (four parameters).

Data set [2] in a line: HCV Replicon 1B CC50, calcein AM (Example Q). Particulars: HCV replicon cells (1B), calcein AM fluorescence, read-out: HCV Replicon 1B CC50 (nM) (per Ex. Q). As for the experimental part: as §1
Where [3] appears, read: HCV replicon cells, 3 days, Dual-Glo luciferase.

The term EC50 denotes the concentration that produces a half-maximal response. As a reminder, the CC50 is the concentration giving 50% cytotoxicity.

Read-outs that look alike come from different tables or passages of the source.

`CCCCCCCCCCCCCCCC[C@@H](COP(=O)(O)OC[C@@]1(C#N)O[C@@H](c2ccc3c(N)ncnn23)[C@H](O)[C@@H]1O)OCc1cc(F)cc(C#N)c1` [Compound 79, ((2R,3S,4R,5S)-5-(4-aminopyrrolo[2,1-f][1,2,4]triazin-7-yl)-2-cyano-3,4-dihydroxytetrahydrofuran-2-yl)methyl ((S)-2-((3-cyano-5-fluorobenzyl)oxy)octadecyl) hydrogen phosphate]: the values for the EC50 in the data set on HCV Replicon 1B (setting [3]) and in the data set on HCV Replicon 2A were 24300 nM and 20000 nM, respectively. The CC50 at 3 days in data set [1] was 30200 nM; in data set [2] it was greater than 44400 nM. In the data set “in vitro”, this compound showed a CC50 at 96 h of 6.74 µM.
On to `CCCCCCCCCCCCCCC[C@H](COP(=O)(O)OC[C@@]1(C#N)O[C@@H](c2ccc3c(N)ncnn23)[C@H](O)[C@@H]1O)OCc1cc(F)cc(C#N)c1` [Compound 80, ((2R,3S,4R,5S)-5-(4-aminopyrrolo[2,1-f][1,2,4]triazin-7-yl)-2-cyano-3,4-dihydroxytetrahydrofuran-2-yl)methyl ((R)-2-((3-cyano-5-fluorobenzyl)oxy)heptadecyl) hydrogen phosphate], for which the figures for the EC50 in the data set with HCV Replicon 1B (setting [3]) and in the data set on HCV Replicon 2A were 32400 nM and 21200 nM, respectively. For the same compound, the CC50 at 3 days in data set [1] was 36900 nM; in data set [2], greater than 44400 nM. In the data set “in vitro”, this compound yielded a cytotoxic concentration (CC50) at 96 h of 7.08 µM.
Taken in the same sequence, the figures for `CCCCCCCCCCCCCCCCCC[C@H](COP(=O)(O)OC[C@@]1(C#N)O[C@@H](c2ccc3c(N)ncnn23)[C@H](O)[C@@H]1O)OCc1cc(Cl)cc(C#N)c1` [Compound 81, ((2R,3S,4R,5S)-5-(4-aminopyrrolo[2,1-f][1,2,4]triazin-7-yl)-2-cyano-3,4-dihydroxytetrahydrofuran-2-yl)methyl ((R)-2-((3-chloro-5-cyanobenzyl)oxy)icosyl) hydrogen phosphate] were 10700 nM, 15900 nM, 37900 nM, greater than 44400 nM and 4.52 µM.
For the compound `CCCCCCCCCCCCCCCCCCC[C@H](COP(=O)(O)OC[C@@]1(C#N)O[C@@H](c2ccc3c(N)ncnn23)[C@H](O)[C@@H]1O)OCc1cc(Cl)cc(C#N)c1` [Compound 82, ((2R,3S,4R,5S)-5-(4-aminopyrrolo[2,1-f][1,2,4]triazin-7-yl)-2-cyano-3,4-dihydroxytetrahydrofuran-2-yl)methyl ((R)-2-((3-chloro-5-cyanobenzyl)oxy)henicosyl) hydrogen phosphate], the EC50 in the data set with HCV Replicon 1B was determined as 11300 nM; in the data set on HCV Replicon 2A, 19200 nM. Further, the CC50 at 3 days in data set [1] was 37600 nM; in data set [2], greater than 44400 nM. Also, half-maximal cytotoxicity in the data set “in vitro” (CC50 at 96 h) was put at 4.03 µM.

The values above are taken from patent publication US20250034182A1, “PHOSPHOLIPID COMPOUNDS AND METHODS OF MAKING AND USING THE SAME” (priority 2021, published 2025).
